Measurements as given in patent EP0795549A1, “Bis-aryloxy(amino)-triazinyl-oxy(amino)aryl derivatives, their preparation and their use as antiviral agents” (American Cyanamid Company, priority 1996, dated 1997).

Experiments:
RSV (A2) = assay: viral yield reduction (growth inhibition) assay, RSV; format: cell-based, Respiratory Syncitial Virus; settings: Table 1a; for Antiviral IC50 µg/ml RSV/ HF: yield reduction or plaque format not specified; for Antiviral IC50 µg/ml RSV/ Vero: format not given
Description: (§1) The compounds were tested for biological activity using viral yield reduction assays. Host cells (indicated as HF for human foreskin fibroblasts and as vero, the commonly used African green monkey cell line, in Tables 1 and 1a) were plated at 4 x 10^4 cells/well in cell growth medium with 2% fetal bovine serum or 2% calf serum in 96-well plates (0.1 ml/well) and incubated overnight. The compounds were added to individual wells to give final concentrations ranging from 50 to 0.1 µg/ml in two-fold concentration steps. After 1 hour, virus was added, and the incubation was continued for 4 days with RSV or CMV and for 2 days with HSV. At the end of the experiment, the amount of virus growth was quantitated and the yield reduction at various concentrations of compound was calculated. This allows estimation of the concentration of compound giving 50% reduction in virus growth (IC50).

[1] = system: human foreskin fibroblasts (HF); assay: effect on cells: appearance of fixed, crystal violet-stained monolayer (HF); format: cell-based; set-up: key: N, no effect on the appearance of the alcohol-fixed and crystal violet-stained cell monolayer at the indicated compound concentration.; L, lightening of the intensity of staining (compared to controls) of the alcohol-fixed and crystal violet-stained cell monolayer at the indicated compound concentration but not at half that concentration; settings: at 75 µg/ml
CMV (Ad169) = assay: viral yield reduction (growth inhibition) assay, CMV; format: cell-based, Cytomegalovirus; settings: Table 1a, HF, format not given
Description: as §1

vero cells = assay: effect on cells: appearance of fixed, crystal violet-stained monolayer (vero); format: cell-based, African green monkey; set-up: key: N, no effect on the appearance of the alcohol-fixed and crystal violet-stained cell monolayer at the indicated compound concentration.; L, lightening of the intensity of staining (compared to controls) of the alcohol-fixed and crystal violet-stained cell monolayer at the indicated compound concentration but not at half that concentration; settings: at 75 µg/ml
HSV1 (Patton) = assay: viral yield reduction (growth inhibition) assay, HSV; format: cell-based, Herpes Simplex Virus; settings: Table 1a; HSV1 (Patton), vero; format not given
Description: as §1

Substance | Antiviral IC50 µg/ml RSV/ HF (RSV (A2)) | Antiviral IC50 µg/ml RSV/ Vero (RSV (A2)) | Effect on cells @ µg/ml indicated HF [1] | Antiviral IC50 µg/ml CMV /HF (CMV (Ad169)) | Effect on cells @ µg/ml indicated Vero (vero cells) | Antiviral IC50 µg/ml HSV Vero (HSV1 (Patton))
1,2',1'',1'''-[(2,2'-disulfo[1,1'-biphenyl]-4,4'-diyl)-bis[imino-1,3,5-triazine-6,2,4-triylbis(imino-3,1-phenylenesulfonyl)]tetrakis[3,5-piperidinedicarboxylic acid [Example 54] | 35 µg/mL | >50 µg/mL | N@75 | >50 µg/mL |  | 
4',4-Bis-{4,6-bis-[3-(3,5-dicarbamoyl-piperidine-1-sulfonyl)-phenylamino]-[1,3,5]triazin-2-ylamino}-biphenyl-2,2'disulfonic acid, disodium salt [Example 53] | 2 µg/mL | 7 µg/mL | N@75 |  | N@75 | >50 µg/mL
4',4-Bis-{4,6-bis-[3-(bis-carbamoylmethyl-1-sulfamoyl)-phenylamino]-[1,3,5]triazin-2-ylamino}-biphenyl-2,2'-disulfonic acid, disodium salt [Example 43] | 0.1 µg/mL |  | N@75 | 2.5 µg/mL | N@75 | 6 µg/mL
4,4'-Bis-(4,6-bis-{3-[bis-(2-methylcarbamoyl-ethyl)-sulfamoyl]-phenylamino}-[1,3,5]triazin-2-ylamino)-biphenyl-2,2'-dicarboxylic acid, disodium salt [Example 35] | 6 µg/mL |  |  | >50 µg/mL | N@75 | >50 µg/mL
4,4'-Bis-(4,6-bis{3-[bis-(2-carbamoyl-ethyl)-sulfamoyl]-phenylamino}- 1,3,5-triazin-2-ylamino]-biphenyl-2,2'-dicarboxylic acid, disodium salt [Example 30] | 0.35 µg/mL |  | N@75 | 40 µg/mL |  | >50 µg/mL
